Test results: US12478620B2, “Cyano-substituted cyclic hydrazine derivative and application thereof” (E-nitiate Biopharmaceuticals (Hangzhou) Co., Ltd, priority 2019, dated 2025)
pIC50: −log10 of the molar value.

How the values were obtained:
JAK1 = JAK1 (Homo sapiens, UniProt P23458); assay: JAK kinase inhibitor activity detection (ULight-JAK-1 substrate, Eu-labeled anti-phosphotyrosine antibody), JAK1; type: biochemical; details: JAK1 10 nM, substrate 50 nM, ATP 40 uM, 2 h room temperature
Description: (§1) Activity Detection of Small Molecule Inhibitors of JAK Kinase
(§2) • (1) kinase reaction buffer • Prepare the kinase reaction buffer with the following components: 50 mM HEPES, pH 7.5, 1 mM EGTA, 10 mM MgCl2, 2 mM DTT, 0.01% Tween20 • (2) 1× detection buffer • To prepare detection buffer, dilute 10× detection buffer to 1× with deionized water 9:1 • (3) 4× kinase solution • Dilute JAK to 4× final concentration by JAK reaction buffer (JAK1: 40 nM, JAK2: 0.5 nM) • (4) 4× substrate solution • Dilute ULight™-JAK-1 (Tyr1023) substrate to 200 nM by kinase reaction buffer (final concentration: 50 nM) • (5) 4×ATP solution • Dilute ATP to 4× final concentration by kinase reaction buffer (JAK1: 160 μM, JAK2: 40 μM) • (6) 4× compound testing solution • DMSO dissolves the testing compound into 10 mM stock solution, then prepared to the desired concentration with 3-fold serial dilution, and 10 concentration points were set for each compound. Besides, the final concentration range of the testing compound is: 10 μM-0.5 nM • (7) 4× enzyme reaction termination liquid • 1× test buffer dissolves EDTA to 40 mM (EDTA final concentration: 10 mM) • (8) 4× antibody detection solution • 1× test buffer dilutes Eu labeled antibody (anti-phosphotyrosine (PT66)) to 8 nM (antibody final concentration: 2 nM) 2. Experimental Process • (1) Successively add 2.5 μL 4×JAK solution, and 2.5 μL of diluted 4× test compound solution in different concentrations to the 384 microporous plate, and set 2 multi-wells for each concentration. Meanwhile, set enzyme solution blank control group and negative control group (DMSO group). • (2) Shake the 384-hole plate, mix enzymes and compounds, centrifuge at 1000 rpm for 1 minute, and incubate at room temperature for 60 minutes • (3) Add 2.5 μL of 4× substrate solution to a 384-hole plate and centrifuge at 1000 rpm for 1 min • (4) Add 2.5 μL of 4×ATP solution to the 384 multi-well plate and centrifuge at 1000 rpm for 1 minute to initiate the enzyme reaction. • (5) JAK1 reacts at room temperature for 2 h, and JAK2 react at room temperature for 1 h. • (6) The final concentrations of each group of the JAK1 reaction are: JAK1: 10 nM, substrate: 50 nM, ATP: 40 uM, and the final concentration range of the test compound is: 10 μM-0.5 nM • The final concentrations of each group of the JAK2 reaction are: JAK2: 0.125 nM, substrate: 50 nM, ATP: 10 μM, and the final concentration range of test compounds is: 10 μM-0.5 nM • (7) After the enzyme reaction, add 5 μL of 4× enzyme reaction stop solution to each well of the 384-well plate with 1000 rpm, centrifuge for 1 minute, and incubate at room temperature for 5 min. • (8) Add 5 μL of 4× detection antibody solution to each well of a 384-well plate (final concentration of detection antibody is 2 nM) with 1000 rpm, centrifuge for 1 minute, and incubate at room temperature for 1 h. • (10) After antibody incubation, measure the signal value of each well on an Envision plate reader 3. Data Analysis • (1) Taking the enzyme solution blank control group as 100% inhibition rate and the negative control group (DMSO group) as 0% inhibition rate, calculate the percentage inhibition rate corresponding to each concentration of the tested compounds • (2) In GraphPad Prism software, nonlinear regression analysis is performed on the concentration logarithm of the test compound and the corresponding percentage inhibition rate to obtain the half-inhibitory concentration (IC50) of the test compound.

JAK2 = JAK2 (Homo sapiens, UniProt O60674); assay: JAK kinase inhibitor activity detection (ULight-JAK-1 substrate, Eu-labeled anti-phosphotyrosine antibody), JAK2; type: biochemical; details: JAK2 0.125 nM, substrate 50 nM, ATP 10 μM, 1 h room temperature
Description: as §1, §2

Sequence of JAK1 (P23458 whole entry, species assumed): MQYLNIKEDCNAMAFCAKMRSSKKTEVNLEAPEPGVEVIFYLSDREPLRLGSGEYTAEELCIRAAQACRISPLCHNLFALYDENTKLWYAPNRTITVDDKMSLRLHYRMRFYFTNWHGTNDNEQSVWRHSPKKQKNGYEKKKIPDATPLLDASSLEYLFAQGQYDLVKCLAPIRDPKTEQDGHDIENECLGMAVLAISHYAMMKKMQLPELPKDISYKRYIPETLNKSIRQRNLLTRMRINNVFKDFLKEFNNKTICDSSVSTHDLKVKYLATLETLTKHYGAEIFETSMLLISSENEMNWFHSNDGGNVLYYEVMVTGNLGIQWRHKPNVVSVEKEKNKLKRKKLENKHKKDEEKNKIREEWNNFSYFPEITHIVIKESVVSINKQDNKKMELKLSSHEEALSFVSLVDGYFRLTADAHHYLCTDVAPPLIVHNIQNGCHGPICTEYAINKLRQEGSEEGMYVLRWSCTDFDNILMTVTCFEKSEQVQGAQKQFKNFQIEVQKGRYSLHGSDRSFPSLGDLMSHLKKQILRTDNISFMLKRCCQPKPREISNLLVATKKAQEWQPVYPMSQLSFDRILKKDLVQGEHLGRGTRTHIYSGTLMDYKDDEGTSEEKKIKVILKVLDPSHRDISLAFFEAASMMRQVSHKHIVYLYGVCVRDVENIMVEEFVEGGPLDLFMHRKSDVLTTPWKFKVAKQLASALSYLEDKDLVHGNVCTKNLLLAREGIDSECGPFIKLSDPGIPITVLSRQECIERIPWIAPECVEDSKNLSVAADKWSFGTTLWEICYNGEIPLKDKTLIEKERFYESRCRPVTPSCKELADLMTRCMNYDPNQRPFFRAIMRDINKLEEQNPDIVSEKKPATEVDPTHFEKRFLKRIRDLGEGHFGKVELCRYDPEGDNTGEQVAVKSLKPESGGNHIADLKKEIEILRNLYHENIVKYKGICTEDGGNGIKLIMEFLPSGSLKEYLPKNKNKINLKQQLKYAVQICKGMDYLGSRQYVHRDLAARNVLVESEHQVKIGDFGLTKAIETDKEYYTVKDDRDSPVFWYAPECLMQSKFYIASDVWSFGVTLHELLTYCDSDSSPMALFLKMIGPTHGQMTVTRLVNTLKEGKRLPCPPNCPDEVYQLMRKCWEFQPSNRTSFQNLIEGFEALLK
Sequence of JAK2 (O60674 whole entry, species assumed): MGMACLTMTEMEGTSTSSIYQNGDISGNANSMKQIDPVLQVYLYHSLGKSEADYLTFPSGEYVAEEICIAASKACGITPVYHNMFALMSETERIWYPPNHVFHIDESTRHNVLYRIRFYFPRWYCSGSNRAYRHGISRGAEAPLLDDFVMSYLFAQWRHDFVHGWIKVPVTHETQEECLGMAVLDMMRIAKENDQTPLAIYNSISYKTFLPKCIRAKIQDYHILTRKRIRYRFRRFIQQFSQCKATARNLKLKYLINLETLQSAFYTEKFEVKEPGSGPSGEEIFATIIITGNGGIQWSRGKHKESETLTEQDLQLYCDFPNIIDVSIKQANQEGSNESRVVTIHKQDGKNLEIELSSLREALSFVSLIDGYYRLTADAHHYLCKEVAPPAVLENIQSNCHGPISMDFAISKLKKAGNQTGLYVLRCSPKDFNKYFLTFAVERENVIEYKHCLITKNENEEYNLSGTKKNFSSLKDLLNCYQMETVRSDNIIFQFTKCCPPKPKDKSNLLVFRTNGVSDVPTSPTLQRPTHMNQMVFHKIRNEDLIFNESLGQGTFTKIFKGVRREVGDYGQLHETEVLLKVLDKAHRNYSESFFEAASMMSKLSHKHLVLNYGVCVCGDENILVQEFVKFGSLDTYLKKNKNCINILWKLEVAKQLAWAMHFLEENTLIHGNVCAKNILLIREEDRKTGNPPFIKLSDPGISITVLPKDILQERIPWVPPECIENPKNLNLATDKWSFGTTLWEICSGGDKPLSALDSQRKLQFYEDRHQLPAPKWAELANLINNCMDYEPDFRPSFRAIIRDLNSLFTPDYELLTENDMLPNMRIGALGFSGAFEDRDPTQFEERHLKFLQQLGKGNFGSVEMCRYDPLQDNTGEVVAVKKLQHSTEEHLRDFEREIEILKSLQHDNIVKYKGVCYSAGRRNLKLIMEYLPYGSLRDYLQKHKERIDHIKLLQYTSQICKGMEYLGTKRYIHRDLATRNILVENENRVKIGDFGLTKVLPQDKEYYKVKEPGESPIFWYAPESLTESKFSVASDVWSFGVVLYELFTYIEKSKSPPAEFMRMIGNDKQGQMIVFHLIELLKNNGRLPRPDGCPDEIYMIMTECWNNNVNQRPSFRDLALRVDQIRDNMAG

Structure (SMILES)	pIC50 (JAK1)	pIC50 (JAK2)
N#CC1CCN(n2cnc3cnc4[nH]ccc4c32)CC1 [Example 1, 1-(imidazo[4,5-d]pyrrolo[2,3-b]pyridine-1(6H)-yl)piperidine-4-carbonitrile]	7.62	7.15
C[C@@H](O)c1nc2cnc3[nH]ccc3c2n1N1CCC2(CC1)CC2C#N (stereo partly drawn) [Example 13, 6-(2-((R)-1-hydroxyethyl)imidazo[4,5-d]pyrrolo[2,3-b]pyridine-1(6H)-yl)-6-azaspiro[2.5]octane-1-carbonitrile]	7.80	7.25
CC(C)(C#N)C1CCN(n2cnc3cnc4[nH]ccc4c32)CC1 [Example 14, 2-(1-(imidazo[4,5-d]pyrrolo[2,3-b]pyridine-1(6H)-yl)piperidine-4-yl)-2-methyl propionitrile]	7.87	8.12
C[C@@H](O)c1nc2cnc3[nH]ccc3c2n1N1CCC(C(C)(C)C#N)CC1 [Example 15, (R)-2-(1-(2-(1-hydroxyethyl)imidazo[4,5-d]pyrrolo[2,3-b]pyridine-1(6H)-yl)piperidine-4-yl)-2-methyl propionitrile]	8.29	7.79
C[C@@H](O)c1nc2cnc3[nH]ccc3c2n1N1CCC(C)(CC#N)CC1 [Example 18, (R)-2-(1-(2-(1-hydroxyethyl)imidazo[4,5-d]pyrrolo[2,3-b]pyridine-1(6H)-yl)-4-methylpiperidine-4-yl)acetonitrile]	8.20	7.86
N#CCC1(O)CCN(n2cnc3cnc4[nH]ccc4c32)CC1 [Example 19, 2-(4-hydroxy-1-(imidazo[4,5-d]pyrrolo[2,3-b]pyridine-1(6H)-yl)-piperidine-4-yl)acetonitrile]	8.63	8.22
N#CC=C1CC2CCC(C1)N2n1cnc2cnc3[nH]ccc3c21 [Example 20, 2-(8-(imidazo[4,5-d]pyrrolo[2,3-b]pyridin-1(6H)-yl)-8-azabicyclo[3.2.1]octan-3-ylidene)acetonitrile]	8.37	8.72
C[C@@H](O)c1nc2cnc3[nH]ccc3c2n1N1C2CCC1CC(CC#N)C2 (stereo partly drawn) [Example 23, 2-(8-(2-((R)-1-hydroxyethyl)imidazo[4,5-d]pyrrolo[2,3-b]pyridin-1(6H)-yl)-8-azabicyclo[3.2.1]octan-3-yl)acetonitrile]	8.57	8.22
N#CCN1CCN(n2cnc3cnc4[nH]ccc4c32)CC1 [Example 24, 3-(4-(imidazo[4,5-d]pyrrolo[2,3-b]pyridin-1(6H)-yl)piperazin-1-yl)acetonitrile]	8.11	7.33
N#CCCN1CCN(n2cnc3cnc4[nH]ccc4c32)CC1 [Example 25, 3-(4-(imidazo[4,5-d]pyrrolo[2,3-b]pyridin-1(6H)-yl)piperazin-1-yl)propanenitrile]	8.28	8.28
N#CCC(=O)N1CCN(n2cnc3cnc4[nH]ccc4c32)CC1 [Example 26, 3-(4-(imidazo[4,5-d]pyrrorolo[2,3-b]pyridin-1(6H)-yl)piperazin-1-yl)oxypropionitrile]	7.38	6.82
CCC1CN(C(=O)CC#N)CN1n1cnc2cnc3[nH]ccc3c21 (stereo not shown) [Example 28]	8.46	7.88
CCC1CN(CCC#N)CN1n1cnc2cnc3[nH]ccc3c21 (stereo not shown) [Example 29, 3-(4-ethyl-3-(imidazo[4,5-d]pyrrolo[2,3-b]pyridine-1(6H)-yl)imidazolidine-1-yl)propionitrile]	7.86	7.56

Now those with a higher pIC50 (JAK1), led by results:

pIC50 (JAK1)	pIC50 (JAK2)	Structure (SMILES)
8.70	8.92	CC1(CC#N)CCN(n2cnc3cnc4[nH]ccc4c32)CC1 [Example 17, 2-(1-(imidazo[4,5-d]pyrrolo[2,3-b]pyridine-1(6H)-yl)-4-methylpiperidine-4-yl)acetonitrile]
8.75	8.48	N#CC1CC12CCN(n1cnc3cnc4[nH]ccc4c31)CC2 (stereo not shown) [Example 12, 6-(imidazo[4,5-d]pyrrolo[2,3-b]pyridine-1(6H)-yl)-6-azaspiro[2.5]octane-1-carbonitrile]
8.77	8.64	C[C@@H](O)c1nc2cnc3[nH]ccc3c2n1N1CCCC(CC#N)CC1 (stereo partly drawn) [Example 27, 2-(1-(2-((R)-1-hydroxyethyl)imidazo[4,5-d]pyrrolo[2,3-b]pyridin-1(6H)-yl)-6-azepan-4-yl)acetonitrile]
8.80	8.39	C[C@@H](O)c1nc2cnc3[nH]ccc3c2n1N1C2CCC1CC(=CC#N)C2 [Example 22, 2-(8-(2-((R)-1-hydroxyethyl)imidazo[4,5-d]pyrrolo[2,3-b]pyridin-1(6H)-yl)-8-azabicyclo[3.2.1]octan-3-ylidene)acetonitrile]
8.82	8.30	C[C@H](O)c1nc2cnc3[nH]ccc3c2n1N1CCC(CC#N)CC1 [Example 8, (S)-2-(1-(2-(1-hydroxyethyl)imidazo[4,5-d]pyrrolo[2,3-b]pyridine-1(6H)-yl)piperidin-4-yl)acetonitrile]
8.88	7.79	N#CC=C1CCN(n2cnc3cnc4[nH]ccc4c32)CC1 [Example 16, 2-(1-(imidazo[4,5-d]pyrrolo[2,3-b]pyridin-1(6H)-yl)piperidin-4-ylidene)acetonitrile]
9.04	8.32	N#CCC1CC2CCC(C1)N2n1cnc2cnc3[nH]ccc3c21 (stereo not shown) [Example 21, 2-(8-(imidazo[4,5-d]pyrrolo[2,3-b]pyridin-1(6H)-yl)-8-azabicyclo[3.2.1]octan-3-yl)acetonitrile]
9.10	8.21	CS(=O)(=O)NCc1nc2cnc3[nH]ccc3c2n1N1CCC(CC#N)CC1 [Example 10, N-((1-(4-(cyanomethyl)piperidin-1-yl)-1,6-dihydroimidazole[4,5-d]pyrrolo[2,3-b]pyridine-2-yl)methyl)methanesulfonamide]
9.18	8.41	N#CCC1CCN(n2c(CCO)nc3cnc4[nH]ccc4c32)CC1 [Example 6, 2-(1-(2-(2-hydroxyethyl)imidazo[4,5-d]pyrrolo[2,3-b]pyridine-1(6H)-yl)piperidin-4-yl)acetonitrile]
9.24	8.53	N#CCCC1CCN(n2cnc3cnc4[nH]ccc4c32)CC1 [Example 11]
9.33	9.02	CCc1nc2cnc3[nH]ccc3c2n1N1CCC(CC#N)CC1 [Example 4, 2-(1-(ethylimidazo[4,5-d]pyrrolo[2,3-b]pyridine-1(6H)-yl)piperidin-4-yl)acetonitrile]
9.55	8.77	N#CCC1CCN(n2cnc3cnc4[nH]ccc4c32)CC1 [Example 2, 2-(1-(imidazo[4,5-d]pyrrolo[2,3-b]pyridine-1(6H)-yl)piperidin-4-yl)acetonitrile]
9.55	8.84	N#CCC1CCN(n2c(CO)nc3cnc4[nH]ccc4c32)CC1 [Example 5, 2-(1-(2-(hydroxymethyl)imidazo[4,5-d]pyrrolo[2,3-b]pyridine-1(6H)-yl)piperidin-4-yl)acetonitrile]
9.77	9.55	Cc1nc2cnc3[nH]ccc3c2n1N1CCC(CC#N)CC1 [Example 3, 2-(1-(methylimidazo[4,5-d]pyrrolo[2,3-b]pyridine-1(6H)-yl)piperidin-4-yl)acetonitrile]
9.85	9.15	N#CCC1CCN(n2c(N)nc3cnc4[nH]ccc4c32)CC1 [Example 9, 2-(1-(2-aminoimidazo[4,5-d]pyrrolo[2,3-b]pyridine-1(6H)-yl)piperidin-4-yl)acetonitrile]
10.10	8.40	C[C@@H](O)c1nc2cnc3[nH]ccc3c2n1N1CCC(CC#N)CC1 [Example 7, (R)-2-(1-(2-(1-hydroxyethyl)imidazo[4,5-d]pyrrolo[2,3-b]pyridine-1(6H)-yl)piperidin-4-yl)acetonitrile]
